Experimental data: the NIST ThermoML archive (doi:10.1016/j.fluid.2014.01.044)
± gives the expanded uncertainty stated by the source.

Key:
[1] = xn = mol fraction of the nth substance listed; settings: 100.2 kPa, Liquid, Pycnometric method
[2] = 100.2 kPa, Liquid, Pycnometric method

mass density ([1]; 298.2 K, x1 = 2.41e-07)	mass density ([1]; 303.2 K, x1 = 3.11e-07)	mass density ([1]; 308.2 K, x1 = 4.32e-07)	mass density ([1]; 313.2 K, x1 = 5.86e-07)	mass density ([1]; 318.2 K, x1 = 6.93e-07)	mass density ([2]; 298.2 K)	mass density ([2]; 303.2 K)	mass density ([2]; 308.2 K)	mass density ([2]; 313.2 K)	mass density ([2]; 318.2 K)	SMILES
1000 ± 5 kg/m3	996 ± 6 kg/m3	993 ± 13 kg/m3	991 ± 2 kg/m3	989 ± 2 kg/m3	–	–	–	–	–	CCCCCCCCCC(=O)OCCN1CCN(CCCN2c3ccccc3Sc3ccc(C(F)(F)F)cc32)CC1 + O
–	–	–	–	–	1000 ± 2 kg/m3	996 ± 2 kg/m3	993 ± 2 kg/m3	991 ± 2 kg/m3	989 ± 2 kg/m3	O [water]
